The source of these data is patent US12383527B2, “Methods for treating triple negative breast cancer using salvianolic acid B” (HOWARD UNIVERSITY, priority 2018, dated 2025).

SMILES strings stand for the structures.

For assay [1], the system named is MDA-MB-231 cells. As to the kind of experiment: Colony formation assay. The settings on record: colonies grown 10 days. Format: cell-based, human. How it is done: Colony formation assay. The inhibitory effect of Sal-B was further confirmed by colony formation assay. The colony formation assay was performed as described previously (Hao Y, et al., “Enforced expression of miR-101 inhibits prostate cancer cell growth by modulating the COX-2 pathway in vivo,” Cancer Prev Res (Phila). 2011; 4: 1073-1083). Briefly, MDA cells were seeded at a density of 300 cells per well in 6-well plates, cultured overnight, and then treated with Sal-B at different concentrations (1, 10, 20, 50, and 100 μM) for 24 hours. Following treatment, the old medium containing Sal-B was replaced with fresh drug-free media and the cells were allowed to grow for 10 days to permit colony formation from viable clonogenic cells. Colonies were stained with 0.1% trypan blue in 50% ethanol and were counted manually under microscopy with a grid printed on a transparent plastic sheet to keep track of colonies counted. The colonies containing more than 50 cells were considered to represent a viable clonogenic cell. The experiment was completed in triplicate for each treatment.

For another assay, the system named is GM3 synthase. Description: Western blot of GM3 synthase expression in MDA and MCF-7 cells. Format: cell-based, human. How it is done: (§1) The immunohistochemical results were consistent with those from Western blotting (FIG. 7, panel A). Western blot analysis was used to determine the expression of apoptosis-related proteins Bcl-XL, survivin, caspase-3 and caspase-8 (FIG. 7, panel A). β-actin was used as an internal control for Western blotting. The MCD-7 and MDA cells were treated with Sal-B (50 μM and 100 μM) and doxorubicin (0.1 μM and 1 μM), respectively, for 24 hours. Proteins were extracted from the cells with RIPA lysis buffer (Santa Cruz Biotechnology, Santa Cruz, CA) and the protein concentrations were quantified with Bio-Rad protein quantification kit. Whole-cell proteins were separated on 8% SDS-polyacrylamide gel, transferred to the polyvinylidene difluoride membrane (Bio-Rad), and then probed with the indicated primary antibodies overnight at 4° C. Washed blots were then incubated with horseradish peroxidase-conjugated anti-rabbit, anti-mouse, or anti-goat antibody (Santa Cruz Biotechnology), respectively, for one hour at room temperature. Blots were developed and visualized with ECL detection system (Bio-Rad).
To understand the mechanism underlying increased ceramide accumulation, the expression levels of GCS and GM3 synthase were measured by Western blot analysis in MDA and MCF-7 cells treated by various concentrations of Sal-B (FIG. 8). […]
(In general: Immunoblotting shows a protein as a band on a membrane.)

Assay [2] concerns proliferating cell nuclear antigen (PCNA). Description: Immunohistochemical staining of PCNA in MDA tumor xenografts. Format: in vivo, athymic nude mice. The settings on record: Sal-B 80 mg/kg three times per week; versus untreated; P<0.05. The method, then: Human tumor xenografts in athymic nude mice. […] The animal protocol was approved by the Howard University Animal Care and Use Committee. Four-week-old female athymic nude mice (Nu/Nu) were obtained from Harlan Sprague Dawley (Indianapolis, IN). All mice were provided the Harlan Teklad #2018 Global 18% protein rodent diet and water ad libitum. Mice were housed in temperature-controlled rooms (74±2° F.) with a 12-hour alternating light-dark cycle. MDA cells (3×10^6/50 μL/spot) were subcutaneously injected into the both sides of lower back of mice using a 27-gauge needle. […]
Immunohistochemical staining was performed as described previously (Hao Y, et al., “Enforced expression of miR-101 inhibits prostate cancer cell growth by modulating the COX-2 pathway in vivo,” Cancer Prev Res (Phila), 2011; 4: 1073-1083). […] For the quantification, ten high-magnification (40×) fields were randomly selected from each slide of tumors and the positive cells were counted. The protein expression was expressed as the average number of positive cells per high magnification field.

Assay [3] concerns MDA-MB-231 cells. As to the kind of experiment: Luciferase assay (bioluminescent cell viability). Format: cell-based, human. How it is done:
(§2) Cell lines and culture. MCF-7 and MDA human breast cancer cell lines stably transfected with firefly luciferase gene were purchased from Caliper Life Sciences (Hanover, MD). MCF-7 cells were cultured in DMEM medium (Invitrogen, Carlsbad, CA) and MDA cells were grown in DMEM/F-12 (1:1) medium (Invitrogen). Both media were supplemented with 10% fetal bovine serum (Invitrogen) and antibiotic-antimycotic mixture (100 IU/ml penicillin and 100 μg/ml streptomycin; Cellgro). The cells were maintained at 37° C. in 5% CO2. All experiments were performed when the cells were in the logarithmic phase of growth. Luciferase assay. The MDA cell line and the hormone receptor-positive MCF-7 cell line were utilized to test the effectiveness of Sal-B and doxorubicin on cancer cell viability. Both cell lines had been stably transfected and expressed the firefly luciferase gene. The bioluminescent signal intensity reflects the cell metabolic activity, being highly correlated with the cell viability. Cell viability was evaluated using the sensitive bioluminescent optical imaging. The cells (10,000 per well) were seeded in flat-bottomed 96-well plates in the above-identified medium with 10% fetal bovine serum and allowed to grow overnight. The old medium was then replaced with fresh medium containing different concentrations of Sal-B (50, 100, 150, and 200 μM) or doxorubicin (0.1, 0.2, 0.5, and 1 μM). The cells were further cultured for 24 hours and D-luciferin was added to each well and mixed gently (final concentration of 150 μ/ml). The signal was measured with the Xenogen IVIS 200 imaging system (Caliper Life Sciences, Hopkinton, MA, USA). The system was equipped with a highly sensitive, cooled charge-coupled device (CCD) camera and a light-tight specimen box. Imaging and quantification of signals was controlled by the acquisition and analysis software Living Image 3.0. The bioluminescent signal from the cells in each well was expressed as total flux (photons per second (p/s)). At least five replicates were performed in each experiment, and each experiment was repeated at least three times. The representative data are presented.

A further assay concerns MCF-7 cells. Description: Luciferase assay (bioluminescent cell viability). Format: cell-based, human. The following applies: Homo sapiens. The method, then: as §2
Another assay concerns Bcl-xL. Description: Western blot of Bcl-xL expression in MDA and MCF-7 cells. The format is cell-based, human. The following applies: Sal-B 50 μM and 100 μM, 24 hours. The method, then:
as §1

As a reminder, the viability is a per cent measure of how many cells are alive, often set against a control. `O=C(/C=C/c1ccc(O)c2c1[C@H](C(=O)O[C@H](Cc1ccc(O)c(O)c1)C(=O)O)[C@@H](c1ccc(O)c(O)c1)O2)O[C@H](Cc1ccc(O)c(O)c1)C(=O)O` [Sal-B, Salvianolic acid B]: in the assay on MDA-MB-231 cells [1] (Sal-B 1 μM for 24 hours), the “colony formation capability relative to control cells” value is “approximately 69%”. Besides, the colony formation capability entry in the assay with MDA-MB-231 cells [1] (Sal-B 100 μM for 24 hours) is listed as “complete inhibition”. In addition, the “expression of GM3 synthase (normalized to β-actin)” value with GM3 synthase (MCF-7 cells, Sal-B 100 μM) is listed as “significantly diminished”; in the assay with GM3 synthase (MDA cells, Sal-B at both 50 μM and 100 μM) it was “significantly diminished”. Moreover, the “PCNA levels in tumor xenografts” value in assay [2] is recorded as “higher in untreated MDA tumor xenografts”. In addition, the viability at 100 µM with MDA-MB-231 cells [3] (Homo sapiens, MDA-MB-231, 24 h, read-out: cell viability compared with untreated cells) was 69%; in the assay with MCF-7 cells (MCF7, 24 h, read-out: cell viability compared with untreated cells), 65%. Further, the IC50 in the assay with MDA-MB-231 cells [3] (Homo sapiens, MDA-MB-231, MDA cells, 24 hours, read-out: half maximal inhibitory concentration (IC50), cell viability) stood at 125 µM; in the assay with MCF-7 cells (MCF7, MCF-7 cells, 24 hours, read-out: half maximal inhibitory concentration (IC50), cell viability), 120 µM. In addition, the “difference in inhibitory effect on cell viability between MDA and MCF-7 cells” value with MDA-MB-231 cells [3] (Sal-B 50-200 μM, 24 hours) was “No significant difference”. For the same compound, the Bcl-xL protein expression entry in the assay with Bcl-xL (MCF-7 cells) and in the assay with Bcl-xL (MDA cells) was “downregulated” each time.
